The values below come from ChEMBL document CHEMBL4385641 (Bioorg Med Chem, 2019).

The target in series [1] is T1, Cannabinoid receptor 1 (Homo sapiens, UniProt P21554). Nature of the series: Inverse agonist activity at human CB1 receptor expressed in CHOK1 cells co-expressing Galphaq16 assessed as apparent equilibrium constant after 90 secs by […]-4 AM dye-based FLIPR assay. Format: cell-based.
The target of series [2] is T1, Cannabinoid receptor 1. Put plainly: Inverse agonist activity at human CB1 receptor expressed in CHOK1 cells co-expressing Galphaq16 assessed as inhibition of calcium mobilization after 90 secs by […]-4 AM dye-based FLIPR assay. Format: functional, cell-based.
Series [3] deals with T1, Cannabinoid receptor 1. Nature of the series: Displacement of [3H]-CP55940 from human CB1 receptor expressed in CHO cell membranes.
For the next series, the target named is Cannabinoid receptor 2 (Homo sapiens, UniProt P34972). Put plainly: Displacement of [3H]-CP55940 from human CB2 receptor expressed in CHO cell membranes. For orientation: Loss of bound radioactivity is the signal in a displacement assay; it reports binding, not function.
For another series, the species on record is Homo sapiens. Put plainly: Selectivity ratio of Ki for displacement of [3H]-CP55940 from human CB2 receptor expressed in CHO cell membranes to Ki for displacement of [3H]-CP55940 from human CB1 receptor expressed in CHO cell membranes.
Series [4] is described as follows: Permeability across apical to basolateral side in MDCK-MDR1 cells at 10 uM incubated for 1 hr by mass spectrometric method. Format: ADME, cell-based, Canis lupus familiaris. Conditions: dog, mdck-mdr1, 1 h.
Series [5] is described as follows: Lipophilicity, log D of compound. Format: physicochemical. The following applies: octanol/water.
A short description of series [6]: Ratio of Cmax in brain to plasma in C57BL6 mouse at […], po by LC-MS/MS analysis. Format: ADME, organism-based.
Series [7] can be described thus: Cmax in C57BL6 mouse plasma at […], po by LC-MS/MS analysis. Format: ADME, organism-based. The arrangement: dose 2.5 mg/kg, route oral.
Series [8] can be described thus: Drug uptake in C57BL6 mouse brain at […], po by LC-MS/MS analysis. Conditions: in vivo. The series is classed as ADME, organism-based.
A short description of series [9]: Half life in human liver microsomes at 1 uM by mass mass spectrometric method. Format: ADME, Microsome. The following applies: for t1/2: microsomes, 1 µM.
Series [10] can be described thus: Intrinsic clearance in human liver microsomes at 1 uM incubated for up to 120 mins by mass mass spectrometric method. The series is classed as ADME, Microsome. Conditions: for CLH: microsomes, 2 h, 1 µM. A general note: Microsomes from liver hold many membrane-bound enzymes, among them those of drug oxidation.
A short description of series [11]: Half life in C57BL6 mouse plasma at […], po by LC-MS/MS analysis. The series is classed as ADME, organism-based.

A value given as a limit tells only on which side of the number the result lay.

T1 sequence (P21554 whole entry): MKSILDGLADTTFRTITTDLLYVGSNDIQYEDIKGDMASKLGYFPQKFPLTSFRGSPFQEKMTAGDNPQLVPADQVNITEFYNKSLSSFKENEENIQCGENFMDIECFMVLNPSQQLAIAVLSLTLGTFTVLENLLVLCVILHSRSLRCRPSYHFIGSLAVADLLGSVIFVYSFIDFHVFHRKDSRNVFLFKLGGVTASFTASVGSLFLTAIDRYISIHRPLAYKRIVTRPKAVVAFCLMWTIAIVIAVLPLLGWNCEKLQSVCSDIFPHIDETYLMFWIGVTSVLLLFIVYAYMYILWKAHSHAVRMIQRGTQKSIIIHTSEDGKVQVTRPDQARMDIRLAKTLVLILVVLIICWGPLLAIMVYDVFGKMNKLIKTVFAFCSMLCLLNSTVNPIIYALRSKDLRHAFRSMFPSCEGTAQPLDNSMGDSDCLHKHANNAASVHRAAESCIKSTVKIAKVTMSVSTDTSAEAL
Cannabinoid receptor 2, sequence (P34972 whole entry): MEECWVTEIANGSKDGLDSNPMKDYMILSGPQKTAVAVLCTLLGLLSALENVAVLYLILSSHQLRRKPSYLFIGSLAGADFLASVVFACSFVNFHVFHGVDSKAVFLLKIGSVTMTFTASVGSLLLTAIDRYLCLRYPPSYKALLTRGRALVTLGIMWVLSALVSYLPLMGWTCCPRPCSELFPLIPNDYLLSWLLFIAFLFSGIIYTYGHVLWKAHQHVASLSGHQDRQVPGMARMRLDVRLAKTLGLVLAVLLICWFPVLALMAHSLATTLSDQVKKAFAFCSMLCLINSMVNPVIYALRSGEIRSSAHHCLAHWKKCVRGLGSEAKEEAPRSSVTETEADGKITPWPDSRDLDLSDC

For the molecule `O=C(NC1CCN(c2ncnc3c2nc(-c2ccccc2Cl)n3-c2ccc(Cl)cc2)CC1)c1ccccc1F`, the Ke(app) on Cannabinoid receptor 1 [1] was 0.6 nM. In addition, the EC50 (commonly the concentration giving half of the maximal effect) on Cannabinoid receptor 1 [2] is 94.8 nM. Further, the Ki – broadly, a dissociation constant, usually derived from enzyme kinetics or from competition with a known ligand – was determined as 0.98 nM at Cannabinoid receptor 1 [3] and 6000 nM at Cannabinoid receptor 2. Further, the Ratio Ki in the series filed under Homo sapiens was 6000. In addition, the permeability in series [4] came out at 0.1%.

As for `N=C(Nc1ccc(F)cc1)NC1CCN(c2ncnc3c2nc(-c2ccccc2Cl)n3-c2ccc(Cl)cc2)CC1`, on Cannabinoid receptor 1 [1], the Ke(app) was 300 nM. Besides, in series [5], the logD (commonly the decadic logarithm of the distribution of all forms, ionised or not, between an organic phase and buffer at a given pH) is 4.6.

Consider `O=S(=O)(NC1CCN(c2ncnc3c2nc(-c2ccccc2Cl)n3-c2ccc(OC(F)F)nc2)CC1)c1ccc(F)c(F)c1`, for which the Ratio in series [6] worked out at 0.18. For the same molecule, on Cannabinoid receptor 1 [1], the Ke(app) is 1.6 nM. Also, the concentration in series [7] peaked (Cmax) at 62 ng/mL. The EC50 at Cannabinoid receptor 1 [2] is 132 nM. For the same molecule, the Drug uptake in series [8] is recorded as less than 20%. Besides, the inhibition constant (Ki) at Cannabinoid receptor 1 [3] is 3 nM; on Cannabinoid receptor 2, 860 nM. Besides, the t1/2 in series [9] came out at 4.57 h. This molecule had a CLH in series [10] of 5 µL/min/mg. Moreover, the half-life (usually the time needed for the level to fall by half in the phase considered) in series [11] was 1.6 h. Further, the Ratio Ki in the series filed under Homo sapiens was 290.

With `O/N=C(\c1ccc(F)cc1)C1CCN(c2ncnc3c2nc(-c2ccccc2Cl)n3-c2ccc(Cl)cc2)CC1` (stereo in doubt; 20), the inhibition constant Ki at Cannabinoid receptor 1 [3] was 5 nM; at Cannabinoid receptor 2 it was greater than 10000 nM. Moreover, the half-life at 1 µM in series [9] (liver microsomes) was 1.1 h. Besides, the microsomal CLint at 1 µM in series [10] (liver microsomes, read-out: CLH) was 19 µL/min/mg.

For the molecule `O/N=C(\c1ccc(F)cc1)C1CCN(c2ncnc3c2nc(-c2ccccc2Cl)n3-c2ccc(Cl)cc2)CC1` (stereo in doubt; 21), the Ki was 7 nM on Cannabinoid receptor 1 [3] and greater than 10000 nM at Cannabinoid receptor 2 (cho). Also, in [9], the t1/2 amounted to 1.68 h. For the same molecule, the CLH in series [10] was 12 µL/min/mg.

Turning to `COCCOC(=O)NC1CCN(c2ncnc3c2nc(-c2ccccc2Cl)n3-c2ccc(Cl)cc2)CC1`, on Cannabinoid receptor 1 [1], the Ke(app) is 6 nM. Further, the Ki on Cannabinoid receptor 1 [3] was 17 nM; at Cannabinoid receptor 2 it was greater than 5000 nM. The Ratio Ki in the series listed under Homo sapiens is greater than 200. In addition, the permeability in series [4] is 13%.

As to `O=S(=O)(NC1CCN(c2ncnc3c2nc(-c2ccccc2Cl)n3-c2ccc(Cl)cc2)CC1)c1ccc(F)c(F)c1`, in [6], the Ratio is on record as 0.31. Moreover, the Ke(app) at Cannabinoid receptor 1 [1] is 0.5 nM. For the same molecule, in series [7], the Cmax (commonly the maximum level reached in the sampled fluid or tissue) came to 12 ng/mL. The inhibition constant (Ki) was 1.7 nM at Cannabinoid receptor 1 [3] and greater than 10000 nM at Cannabinoid receptor 2. In series [11], this molecule showed a half-life of 5.3 h. The Ratio Ki in the series filed under Homo sapiens was greater than 5000. Besides, the permeability in [4] is given as less than 0.1%.

On to `O=S(=O)(CCC(F)(F)F)NC1CCN(c2ncnc3c2nc(-c2ccccc2Cl)n3-c2ccc(Cl)cc2)CC1`, for which the Ke(app) at Cannabinoid receptor 1 [1] was 12 nM. Further, the inhibition constant (Ki) at Cannabinoid receptor 1 [3] came to 4 nM; on Cannabinoid receptor 2 it was 420 nM. Also, the Ratio Ki in the series listed under Homo sapiens came to 105. In series [4], this molecule gave a permeability of 1%.

In the case of `O=S(=O)(NC1CCN(c2ncnc3c2nc(-c2ccccc2Cl)n3-c2ccc(Cl)cc2)CC1)c1ccc(F)cc1F`, the Ke(app) at Cannabinoid receptor 1 [1] is 2 nM. The Ki on Cannabinoid receptor 2 was greater than 10000 nM. In the series listed under Homo sapiens, the Ratio Ki was greater than 5000. Further, the permeability in series [4] was determined as 0.1%.

On to `O=C(NC1CCN(c2ncnc3c2nc(-c2ccccc2Cl)n3-c2ccc(Cl)cc2)CC1)c1ccc(F)c(F)c1`, for which the Ke(app) on Cannabinoid receptor 1 [1] was 0.7 nM. In addition, the Ki is 3 nM at Cannabinoid receptor 1 [3] and 5900 nM on Cannabinoid receptor 2. Also, the Ratio Ki in the series filed under Homo sapiens came out at 2000. Besides, the permeability in series [4] was 0.2%.

Take `CC(C)(C)OCCC(=O)NC1CCN(c2ncnc3c2nc(-c2ccccc2Cl)n3-c2ccc(Cl)cc2)CC1`: the Ke(app) at Cannabinoid receptor 1 [1] is 1.7 nM. Also, the results for the Ki at Cannabinoid receptor 1 [3] and on Cannabinoid receptor 2 were 6 nM and 4900 nM, respectively. Also, the Ratio Ki in the series filed under Homo sapiens worked out at 820. In addition, the permeability in series [4] was found to be 20%.

Take `O=S(=O)(NC1CCN(c2ncnc3c2nc(-c2ccccc2Cl)n3-c2ccc(Cl)cc2)CC1)c1ccccc1F`: the Ke(app) on Cannabinoid receptor 1 [1] was 0.8 nM. Also, the EC50 on Cannabinoid receptor 1 [2] was 287 nM. The Ki came to 0.38 nM on Cannabinoid receptor 1 [3] and 8500 nM on Cannabinoid receptor 2. The Ratio Ki in the series listed under Homo sapiens was 22000.

In the case of `O=C(NC1CCN(c2ncnc3c2nc(-c2ccccc2Cl)n3-c2ccc(C(F)(F)F)nc2)CC1)c1ccccc1`, at Cannabinoid receptor 1 [1], the Ke(app) was 19 nM. Moreover, the Ki on Cannabinoid receptor 1 [3] turned out to be 8 nM; at Cannabinoid receptor 2, 740 nM. The Ratio Ki in the series filed under Homo sapiens is 92. Also, the permeability in [4] stood at 3%.

With `O=C(NC1CCN(c2ncnc3c2nc(-c2ccccc2Cl)n3-c2ccc(Cl)cc2)CC1)c1ccc(F)cc1`, on Cannabinoid receptor 1 [1], the Ke(app) was 1.1 nM. The inhibition constant Ki on Cannabinoid receptor 1 [3] was determined as 2 nM; at Cannabinoid receptor 2 it was 10000 nM. In addition, the Ratio Ki in the series filed under Homo sapiens was determined as 5000. In [4], the permeability was determined as 0.2%.

In the case of `O=C(NC1CCN(c2ncnc3c2nc(-c2ccccc2Cl)n3-c2ccc(Cl)cc2)CC1)c1ccc(F)cc1F`, the Ke(app) on Cannabinoid receptor 1 [1] was 1.2 nM. Further, the values for the Ki at Cannabinoid receptor 1 [3] and on Cannabinoid receptor 2 were 2 nM and greater than 7000 nM, respectively. Moreover, the Ratio Ki in the series listed under Homo sapiens was greater than 3500. Also, the permeability in series [4] was less than 0.1%.

In the case of `CCCCCS(=O)(=O)NC1CCN(c2ncnc3c2nc(-c2ccccc2Cl)n3-c2ccc(Cl)cc2)CC1`, the Ke(app) on Cannabinoid receptor 1 [1] is 29 nM. The Ki on Cannabinoid receptor 1 [3] turned out to be 9 nM; at Cannabinoid receptor 2 it was 570 nM. Further, the Ratio Ki in the series filed under Homo sapiens turned out to be 63. The same molecule returned a permeability in [4] of less than 0.1%.

`Clc1ccc(-n2c(-c3ccccc3Cl)nc3c(N4CCC(Nc5ccccc5)CC4)ncnc32)cc1`: the Ke(app) at Cannabinoid receptor 1 [1] was 1.4 nM. Further, the inhibitory constant (Ki) on Cannabinoid receptor 1 [3] is 6 nM; at Cannabinoid receptor 2 it was greater than 10000 nM. The Ratio Ki in the series filed under Homo sapiens is greater than 1600. In series [4], this molecule showed a permeability of 0%.

With `Clc1ccc(-n2c(-c3ccccc3Cl)nc3c(N4CCC(Nc5ccccn5)CC4)ncnc32)cc1`, in [6], the Ratio is 0.45. Besides, the Ke(app) at Cannabinoid receptor 1 [1] is 54 nM. Moreover, the Cmax in [7] amounted to 38 ng/mL. Further, the Ki on Cannabinoid receptor 1 [3] turned out to be 2.4 nM; on Cannabinoid receptor 2, 3100 nM. Besides, in [11], the half-life was 7.4 h. The Ratio Ki in the series filed under Homo sapiens is 1300. In addition, in series [4], the permeability is 0.1%.

As to `CC(C(=O)NC1CCN(c2ncnc3c2nc(-c2ccccc2Cl)n3-c2ccc(Cl)cc2)CC1)c1ccccc1` (configuration not stated), at Cannabinoid receptor 1 [1], the Ke(app) is 2 nM. Further, the Ki was determined as 3 nM at Cannabinoid receptor 1 [3] and 150 nM at Cannabinoid receptor 2. For the same molecule, the Ratio Ki in the series listed under Homo sapiens is 50. This molecule had a permeability in series [4] of less than 0.1%.

Take `CCCCC(=O)NC1CCN(c2ncnc3c2nc(-c2ccccc2Cl)n3-c2ccc(C(F)(F)F)nc2)CC1`: the Ke(app) at Cannabinoid receptor 1 [1] was 4 nM. In addition, the figures for the inhibition constant Ki on Cannabinoid receptor 1 [3] and on Cannabinoid receptor 2 were 3 nM and 420 nM, respectively. Further, the Ratio Ki in the series filed under Homo sapiens was 140. The permeability in series [4] was determined as 28%.

For `O=S(=O)(NC1CCN(c2ncnc3c2nc(-c2ccccc2Cl)n3-c2ccc(Cl)cc2)CC1)c1ccc(F)cc1`, the Ke(app) on Cannabinoid receptor 1 [1] is 1.1 nM. The Ki came out at 3.3 nM on Cannabinoid receptor 1 [3] and 9000 nM at Cannabinoid receptor 2. Moreover, the Ratio Ki in the series filed under Homo sapiens was greater than 2000. Moreover, the permeability in series [4] amounted to 0.1%.

With `O=S(=O)(CC1CCCCC1)NC1CCN(c2ncnc3c2nc(-c2ccccc2Cl)n3-c2ccc(Cl)cc2)CC1`, the Ke(app) on Cannabinoid receptor 1 [1] is 31 nM. Further, the inhibition constant (Ki) was 9 nM on Cannabinoid receptor 1 [3] and greater than 10000 nM on Cannabinoid receptor 2. Moreover, the Ratio Ki in the series filed under Homo sapiens was greater than 1100. Moreover, in series [4], the permeability is recorded as less than 0.1%.
